Test results as given in US20240270695A1, “COMPOUNDS, COMPOSITIONS AND METHODS OF TREATING DISORDERS” (Chengdu Anticancer Bioscience LTD, priority 2021, published 2024).

Legend:
[1] = tested on: RPE-Neo or RPE-MYC or RPE-MYC expressing an EGFP-Histone 2B fusion protein; test: Phenotypic screening assay (arrest in mitosis, change in DNA content, cell death; GE IN-Cell Analyzer 2000); assay type: cell-based; settings: Homo sapiens, compounds 20 nM to 20 μM, 24, 48 or 72 hours
[2] = tested on: RPE-Neo or RPE-MYC or RPE-MYC expressing an EGFP-Histone 2B fusion protein; test: MTT assays of cellular proliferation; assay type: cell-based; settings: Homo sapiens, min. effective conc., read-out: Proliferative arrest (<50%)
[3] = read-out: Min. Effective conc. for Polyploidy (≥10%)
[4] = min. effective conc., read-out: Cell Death (>30%)
[5] = min. effective conc., read-out: Mitotic Arrest (≥10%)

In the case of CNC(=O)C1=C(O)c2ccccc2N(Cc2cccc(OC)c2)C(=O)C1 [Example 92, 5-hydroxy-1-(3-methoxybenzyl)-N-methyl-2-oxo-2,3-dihydro-1H-benzo[b]azepine-4-carboxamide], the minimal effective concentration [1, 3] is reported as 10 to 30 µM, the minimal effective concentration [1, 4] is reported as 10 to 30 µM and the minimal effective concentration [1, 5] is reported as 10 to 30 µM. The minimal effective concentration [2] was 10 to 30 µM.

CCc1ccc(CN2C(=O)CC(C(=O)NC)=C(O)c3ccccc32)cc1 [Example 86, 1-(4-ethylbenzyl)-5-hydroxy-N-methyl-2-oxo-2,3-dihydro-1H-benzo[b]azepine-4-carboxamide] was tested, and the minimal effective concentration [1, 3] was 1 to 10 µM, the minimal effective concentration [1, 4] was 1 to 10 µM and the minimal effective concentration [1, 5] was 1 to 10 µM. For the same compound, the minimal effective concentration [2] was 1 to 10 µM.

Work on CNC(=O)C1=C(O)c2cc(C)ccc2N(Cc2ccc(C)c(F)c2)C(=O)C1 [Example 136, 1-(3-fluoro-4-methylbenzyl)-5-hydroxy-N,7-dimethyl-2-oxo-2,3-dihydro-1H-benzo[b]azepine-4-carboxamide] yielded a minimal effective concentration [1, 3] of 1 to 10 µM, a minimal effective concentration [1, 4] of 1 to 10 µM and a minimal effective concentration [1, 5] of 1 to 10 µM. The minimal effective concentration [2] was 1 to 10 µM.

CNC(=O)C1=C(O)c2ccccc2N(Cc2cc(F)ccc2OC)C(=O)C1 [Example 114, 1-(5-fluoro-2-methoxybenzyl)-5-hydroxy-N-methyl-2-oxo-2,3-dihydro-1H-benzo[b]azepine-4-carboxamide] was tested, and the minimal effective concentration [1, 3] was 1 to 10 µM, the minimal effective concentration [1, 4] was 1 to 10 µM and the minimal effective concentration [1, 5] was 1 to 10 µM. For the same compound, the minimal effective concentration [2] was 1 to 10 µM.

CNC(=O)C1=C(O)c2ccccc2N(Cc2ccc(C)c(Br)c2)C(=O)C1 [Example 120] gave a minimal effective concentration [1, 3] of 10 to 30 µM, a minimal effective concentration [1, 4] of 10 to 30 µM and a minimal effective concentration [1, 5] of 10 to 30 µM. For the same compound, the minimal effective concentration [2] was 10 to 30 µM.

CNC(=O)C1=C(O)c2ccccc2N(Cc2cc(F)ccc2F)C(=O)C1 [Example 106, 1-(2,5-difluorobenzyl)-5-hydroxy-N-methyl-2-oxo-2,3-dihydro-1H-benzo[b]azepine-4-carboxamide] was tested, and the minimal effective concentration [1, 3] was 30 to 1000 µM, the minimal effective concentration [1, 4] was 30 to 1000 µM and the minimal effective concentration [1, 5] was 30 to 1000 µM. For the same compound, the minimal effective concentration [2] was 30 to 1000 µM.

CNC(=O)C1=C(O)c2ccccc2N(Cc2ccc(F)c(C)c2)C(=O)C1 [Example 109, 1-(4-fluoro-3-methylbenzyl)-5-hydroxy-N-methyl-2-oxo-2,3-dihydro-1H-benzo[b]azepine-4-carboxamide] was tested, and the minimal effective concentration [1, 3] was 10 to 30 µM, the minimal effective concentration [1, 4] was 30 to 1000 µM and the minimal effective concentration [1, 5] was 10 to 30 µM. The minimal effective concentration [2] was 30 to 1000 µM.

CNC(=O)C1=C(O)c2ccccc2N(Cc2ccc(Cl)cc2)C(=O)C1 [Example 83, 1-(4-chlorobenzyl)-5-hydroxy-N-methyl-2-oxo-2,3-dihydro-1H-benzo[b]azepine-4-carboxamide] showed a minimal effective concentration [1, 3] of 10 to 30 µM, a minimal effective concentration [1, 4] of 10 to 30 µM and a minimal effective concentration [1, 5] of 10 to 30 µM. For the same compound, the minimal effective concentration [2] was 10 to 30 µM.

In the case of CNC(=O)C1=C(O)c2ccc(-c3cnn(C)c3)cc2N(Cc2ccc(C)c(F)c2)C(=O)C1 [Example 138, 1-(3-fluoro-4-methylbenzyl)-5-hydroxy-N-methyl-8-(1-methyl-1H-pyrazol-4-yl)-2-oxo-2,3-dihydro-1H-benzo[b]azepine-4-carboxamide], the minimal effective concentration [1, 3] is reported as 1 to 10 µM, the minimal effective concentration [1, 4] is reported as 1 to 10 µM and the minimal effective concentration [1, 5] is reported as 1 to 10 µM. For the same compound, the minimal effective concentration [2] was 1 to 10 µM.

In the case of CNC(=O)C1=C(O)c2ccccc2N(Cc2cc(F)cc(F)c2)C(=O)C1 [Example 104, 1-(3,5-difluorobenzyl)-5-hydroxy-N-methyl-2-oxo-2,3-dihydro-1H-benzo[b]azepine-4-carboxamide], the minimal effective concentration [1, 3] is reported as 30 to 1000 µM, the minimal effective concentration [1, 4] is reported as 30 to 1000 µM and the minimal effective concentration [1, 5] is reported as 30 to 1000 µM. The minimal effective concentration [2] was 30 to 1000 µM.

CNC(=O)C1=C(O)c2ccccc2N(Cc2cc(F)c(F)c(F)c2)C(=O)C1 [Example 105, 5-hydroxy-N-methyl-2-oxo-1-(3,4,5-trifluorobenzyl)-2,3-dihydro-1H-benzo[b]azepine-4-carboxamide] gave a minimal effective concentration [1, 3] of 30 to 1000 µM, a minimal effective concentration [1, 4] of 30 to 1000 µM and a minimal effective concentration [1, 5] of 30 to 1000 µM. It also gave a minimal effective concentration [2] of 30 to 1000 µM.

CNC(=O)C1=C(O)c2ccccc2N(Cc2ccc(C(C)=O)cc2)C(=O)C1 [Example 90, 1-(4-acetylbenzyl)-5-hydroxy-N-methyl-2-oxo-2,3-dihydro-1H-benzo[b]azepine-4-carboxamide] showed a minimal effective concentration [1, 3] of 30 to 1000 µM, a minimal effective concentration [1, 4] of 30 to 1000 µM and a minimal effective concentration [1, 5] of 30 to 1000 µM. It also gave a minimal effective concentration [2] of 30 to 1000 µM.

CNC(=O)C1=C(O)c2ccc(OC(F)F)cc2N(Cc2ccc(C)c(F)c2)C(=O)C1 [Example 129, 8-(difluoromethoxy)-1-(3-fluoro-4-methylbenzyl)-5-hydroxy-N-methyl-2-oxo-2,3-dihydro-1H-benzo[b]azepine-4-carboxamide] gave a minimal effective concentration [1, 3] of 0.001 to 1 µM, a minimal effective concentration [1, 4] of 0.001 to 1 µM and a minimal effective concentration [1, 5] of 0.001 to 1 µM. For the same compound, the minimal effective concentration [2] was 0.001 to 1 µM.

Compound CNC(=O)C1=C(O)c2ccccc2N(Cc2cccc(C)c2)C(=O)C1 [Example 80, 5-hydroxy-N-methyl-1-(3-methylbenzyl)-2-oxo-2,3-dihydro-1H-benzo[b]azepine-4-carboxamide] has a minimal effective concentration [1, 3] of 1 to 10 µM, a minimal effective concentration [1, 4] of 1 to 10 µM and a minimal effective concentration [1, 5] of 1 to 10 µM. It also gave a minimal effective concentration [2] of 1 to 10 µM.

For CNC(=O)C1=C(O)c2ccccc2N(c2ccc(OC)c(F)c2)C(=O)C1 [Example 95, 1-(3-fluoro-4-methoxyphenyl)-5-hydroxy-N-methyl-2-oxo-2,3-dihydro-1H-benzo[b]azepine-4-carboxamide], the minimal effective concentration [1, 3] was 10 to 30 µM, the minimal effective concentration [1, 4] was 10 to 30 µM and the minimal effective concentration [1, 5] was 1 to 10 µM. The minimal effective concentration [2] was 10 to 30 µM.

With CNC(=O)C1CC(=O)N(Cc2ccc(C)c(C)c2)c2ccccc2C1=O (stereo not drawn) [Example 100, 1-(3,4-dimethylbenzyl)-5-hydroxy-N-methyl-2-oxo-2,3-dihydro-1H-benzo[b]azepine-4-carboxamide] the minimal effective concentration [1, 3] was 1 to 10 µM, the minimal effective concentration [1, 4] was 1 to 10 µM and the minimal effective concentration [1, 5] was 1 to 10 µM. It also gave a minimal effective concentration [2] of 1 to 10 µM.

CNC(=O)C1=C(O)c2ccccc2N(Cc2ccccc2)C(=O)C1 [Example 72, 1-benzyl-5-hydroxy-N-methyl-2-oxo-2,3-dihydro-1H-benzo[b]azepine-4-carboxamide] showed a minimal effective concentration [1, 3] of 30 to 1000 µM, a minimal effective concentration [1, 5] of 30 to 1000 µM and a minimal effective concentration [2] of 30 to 1000 µM.

Work on CNC(=O)C1=C(O)c2ccc(OCc3ccc(OC)c(F)c3)cc2N(Cc2ccc(C)c(F)c2)C(=O)C1 [Example 133, 8-((3-fluoro-4-methoxybenzyl)oxy)-1-(3-fluoro-4-methylbenzyl)-5-hydroxy-N-methyl-2-oxo-2,3-dihydro-1H-benzo[b]azepine-4-carboxamide] yielded a minimal effective concentration [1, 3] of 1 to 10 µM, a minimal effective concentration [1, 4] of 1 to 10 µM and a minimal effective concentration [1, 5] of 1 to 10 µM. The minimal effective concentration [2] was 1 to 10 µM.

Compound CNC(=O)C1=C(O)c2ccccc2N(Cc2ccc(F)c(OC)c2)C(=O)C1 [Example 112, 1-(4-fluoro-3-methoxybenzyl)-5-hydroxy-N-methyl-2-oxo-2,3-dihydro-1H-benzo[b]azepine-4-carboxamide] has a minimal effective concentration [1, 3] of 1 to 10 µM, a minimal effective concentration [1, 4] of 1 to 10 µM and a minimal effective concentration [1, 5] of 1 to 10 µM. It also gave a minimal effective concentration [2] of 1 to 10 µM.

CNC(=O)C1=C(O)c2ccccc2N(Cc2cccc(C)c2C)C(=O)C1 [Example 98, 1-(2,3-dimethylbenzyl)-5-hydroxy-N-methyl-2-oxo-2,3-dihydro-1H-benzo[b]azepine-4-carboxamide] was tested, and the minimal effective concentration [1, 3] was 10 to 30 µM, the minimal effective concentration [1, 4] was 30 to 1000 µM and the minimal effective concentration [1, 5] was 10 to 30 µM. The minimal effective concentration [2] was 30 to 1000 µM.

With CNC(=O)C1=C(O)c2ccccc2N(Cc2ccc(C)c(Cl)c2)C(=O)C1 [Example 119, 1-(3-chloro-4-methylbenzyl)-5-hydroxy-N-methyl-2-oxo-2,3-dihydro-1H-benzo[b]azepine-4-carboxamide] the minimal effective concentration [1, 3] was 10 to 30 µM, the minimal effective concentration [1, 4] was 10 to 30 µM and the minimal effective concentration [1, 5] was 10 to 30 µM. The minimal effective concentration [2] was 10 to 30 µM.

CCOc1ccc2c(c1)N(Cc1ccc(C)c(F)c1)C(=O)CC(C(=O)NC)=C2O [Example 128, 8-ethoxy-1-(3-fluoro-4-methylbenzyl)-5-hydroxy-N-methyl-2-oxo-2,3-dihydro-1H-benzo[b]azepine-4-carboxamide] gave a minimal effective concentration [1, 3] of 1 to 10 µM, a minimal effective concentration [1, 4] of 1 to 10 µM and a minimal effective concentration [1, 5] of 1 to 10 µM. The minimal effective concentration [2] was 1 to 10 µM.

CNC(=O)C1=C(O)c2ccccc2N(Cc2cc(C)cc(C)c2)C(=O)C1 [Example 97, 1-(3,5-dimethylbenzyl)-5-hydroxy-N-methyl-2-oxo-2,3-dihydro-1H-benzo[b]azepine-4-carboxamide] showed a minimal effective concentration [1, 3] of 1 to 10 µM, a minimal effective concentration [1, 4] of 1 to 10 µM and a minimal effective concentration [1, 5] of 1 to 10 µM. It also gave a minimal effective concentration [2] of 1 to 10 µM.

CNC(=O)C1=C(O)c2ccccc2N(Cc2ccc(OC)c(F)c2)C(=O)C1 [Example 111, 1-(3-fluoro-4-methoxybenzyl)-5-hydroxy-N-methyl-2-oxo-2,3-dihydro-1H-benzo[b]azepine-4-carboxamide] gave a minimal effective concentration [1, 3] of 1 to 10 µM, a minimal effective concentration [1, 4] of 1 to 10 µM and a minimal effective concentration [1, 5] of 1 to 10 µM. It also gave a minimal effective concentration [2] of 1 to 10 µM.

For CNC(=O)C1=C(O)c2ccccc2N(Cc2ccc(Br)c(F)c2)C(=O)C1 [Example 125, 1-(4-bromo-3-fluorobenzyl)-5-hydroxy-N-methyl-2-oxo-2,3-dihydro-1H-benzo[b]azepine-4-carboxamide], the minimal effective concentration [1, 3] was 1 to 10 µM, the minimal effective concentration [1, 4] was 1 to 10 µM and the minimal effective concentration [1, 5] was 1 to 10 µM. The minimal effective concentration [2] was 1 to 10 µM.
